Data taken from patent US20050143927A1, “Method for estimating or predicting the anti-tumor activity of a compound and for estimating or predicting the tumor growth in mammals” (Pharmacia Italia S.p.A., priority 2002, published 2005).

System: GTL16 (human stomach carcinoma)
Test: Tumor growth model for treated subjects, GTL16 inoculated subcutaneously in athymic nude mice (Experiment-A)
Format: in vivo
Source text: The cell line GTL16 (human stomach carcinoma) was inoculated subcutaneously on the back of 44 athymic nude male mice, initially weighing 17.9-28.1 g.
The dimensions of the tumor can be taken applying different types of measurements broadly classifiable as measurements of linear dimensions, of volume (or mass) and cell number. For tumors that maintain more or less a spherical morphology, as in the case of solid tumors, the measurement of the three principal diameters results the most adequate, as well as the most practiced solution. Nevertheless, in the case of subcutaneous tumors, the tumor can be considered of spherical shape only during the initial phase of growth; in the following phases, the dimension perpendicular to the skin is generally much smaller than the percutaneous dimensions, conferring to the mass a plaque-like shape or an hemi-ellipsoidal shape. In the experiments taken into consideration, only the dimensions of the two percutaneous diameters were directly measured with vernier calipers. The third dimension was not directly measured, because of the limited accessibility (which would have required a greater invasiveness), in the assumption that two measures were anyhow sufficient to guarantee a good approximation of the tumor mass (K. Rygaard and M. Spang-Thomsen, “Quantitation and Gompertzian analysis of tumor growth”. Breast Cancer Research and Treatment, 46: 303-312,1997).
The volume of a tumor can be indirectly calculated by applying the following empirical formula: [formula] where DMIN and DMAX denote, respectively, the smallest and the largest percutaneous diameter. Such empirical formula hypothesizes that the neoplasia has an ellipsoidal shape (D. A. Cameron, W. M. Gregory, A. Bowman, E. D. C. Anderson, P. Levack, P. Forouhi and R. F. C. Leonard, “Identification of long-term survivors in primary breast cancer by dynamic modeling of tumour response”. British Journal of Cancer, 83(1): 98-103, 2000, Hammond, L. A.; Hilsenbeck, S. G.; Eckhardt, S. G.; Marty, J; Mangold, G.; MacDonald, G. R.; Rowinsky, E. K.; Von Hoff, D. D; Weitman S. Enhanced antitumour activity of 6-hydroxymethylacylfulvene in combination with topotecan or paclitaxel in the MV522 lung carcinoma xenograft model. European Journal of Cancer 2000, 36, 2430-2436) obtained by the rotation of a hemi-ellipsoid (with DMIN and DMAX as axes of the percutaneous plane) around its largest axe. Assuming δ as a constant density equal to δ=10^−3g/mm^3, the empirical expression for the mass of the neoplasia results to be: [formula] The Measurement Error Model
As it regards the model of tumor growth, the error model above introduced is instead known. For the observed measurements of a generic quantity y (for instance the weight of the tumor), the constant coefficient of variation error model (3.5 and 3.6) asserts that the standard deviation of the error varies linearly with the dimension the measured quantity. With an error model of this kind, the technique of the weighed least squares (Weighed Least Squares, WLS), described in M. E. Dagna, “Identificazione di modelli farmacocinetici di popolazione”; Università degli Studi di Pavia 1999, herein incorporated as far as the WLS technique is concerned, is more adequate.

[1] = mean of the twelve treated mice (20, 30, 40 mg/kg q4dx3)
[2] = mouse 0, 20 mg/kg iv-bolus q4dx3
[3] = mouse 26, 40 mg/kg iv-bolus q4dx3
[4] = mouse 28, 30 mg/kg iv-bolus q4dx3
[5] = mouse 31, 20 mg/kg iv-bolus q4dx3
[6] = mouse 55, 20 mg/kg iv-bolus q4dx3
[7] = mouse 59, 30 mg/kg iv-bolus q4dx3
[8] = mouse 64, 30 mg/kg iv-bolus q4dx3
[9] = mouse 69, 20 mg/kg iv-bolus q4dx3
[10] = mouse 78, 40 mg/kg iv-bolus q4dx3
[11] = mouse 80, 40 mg/kg iv-bolus q4dx3
[12] = mouse 81, 40 mg/kg iv-bolus q4dx3
[13] = mouse 88, 30 mg/kg iv-bolus q4dx3
[14] = treated mouse 0, 20 mg/kg iv-bolus q4dx3
[15] = treated mouse 26, 40 mg/kg iv-bolus q4dx3
[16] = treated mouse 28, 30 mg/kg iv-bolus q4dx3
[17] = treated mouse 31, 20 mg/kg iv-bolus q4dx3
[18] = treated mouse 55, 20 mg/kg iv-bolus q4dx3
[19] = treated mouse 59, 30 mg/kg iv-bolus q4dx3
[20] = treated mouse 64, 30 mg/kg iv-bolus q4dx3
[21] = treated mouse 69, 20 mg/kg iv-bolus q4dx3
[22] = treated mouse 78, 40 mg/kg iv-bolus q4dx3
[23] = treated mouse 80, 40 mg/kg iv-bolus q4dx3
[24] = treated mouse 81, 40 mg/kg iv-bolus q4dx3
[25] = treated mouse 88, 30 mg/kg iv-bolus q4dx3

Q: For `CC(=O)O[C@H]1C(=O)[C@@]2(C)[C@H]([C@H](OC(=O)c3ccccc3)[C@]3(O)C[C@H](OC(=O)[C@H](O)[C@@H](NC(=O)c4ccccc4)c4ccccc4)C(C)=C1C3(C)C)[C@]1(OC(C)=O)CO[C@@H]1C[C@@H]2O` [Drug-A, paclitaxel], which “K1, mean” value [1] is on record?
A: 0.1879 day⁻¹

Q: And the “K2, mean” value [1]?
A: 0.002921 mL/g/day

Q: What about the “λ0, mean” value [1] of the same compound?
A: 0.2467

Q: What about the “λ1, mean” value [1] of the same compound?
A: 0.1274

Q: And the “K1 (index of the tumor cells death rate)” value [2]?
A: 0.2057 day⁻¹

Q: And the “K2 (index of the potency of the compound)” value [2]?
A: 0.01878 mL/g/day

Q: And the “K1 (index of the tumor cells death rate)” value [3]?
A: 0.1658 day⁻¹

Q: And the “K2 (index of the potency of the compound)” value [3]?
A: 0.00315 mL/g/day

Q: What about the “K1 (index of the tumor cells death rate)” value [4] of the same compound?
A: 0.1406 day⁻¹

Q: And the “K2 (index of the potency of the compound)” value [4]?
A: 0.000759 mL/g/day

Q: What about the “K1 (index of the tumor cells death rate)” value [5] of the same compound?
A: 0.2683 day⁻¹

Q: What about the “K2 (index of the potency of the compound)” value [5] of the same compound?
A: 0.003356 mL/g/day

Q: What about the “K1 (index of the tumor cells death rate)” value [6] of the same compound?
A: 0.2424 day⁻¹

Q: And the “K2 (index of the potency of the compound)” value [6]?
A: 0.002721 mL/g/day

Q: What about the “K1 (index of the tumor cells death rate)” value [7] of the same compound?
A: 0.192 day⁻¹

Q: And the “K2 (index of the potency of the compound)” value [7]?
A: 0.000563 mL/g/day

Q: And the “K1 (index of the tumor cells death rate)” value [8]?
A: 0.1646 day⁻¹

Q: And the “K2 (index of the potency of the compound)” value [8]?
A: 0.001085 mL/g/day

Q: What about the “K1 (index of the tumor cells death rate)” value [9] of the same compound?
A: 0.1515 day⁻¹

Q: And the “K2 (index of the potency of the compound)” value [9]?
A: 0.001361 mL/g/day

Q: And the “K1 (index of the tumor cells death rate)” value [10]?
A: 0.2056 day⁻¹

Q: And the “K2 (index of the potency of the compound)” value [10]?
A: 0.001507 mL/g/day

Q: And the “K1 (index of the tumor cells death rate)” value [11]?
A: 0.209 day⁻¹

Q: What about the “K2 (index of the potency of the compound)” value [11] of the same compound?
A: 0.000178 mL/g/day

Q: What about the “K1 (index of the tumor cells death rate)” value [12] of the same compound?
A: 0.2206 day⁻¹

Q: And the “K2 (index of the potency of the compound)” value [12]?
A: 0.000314 mL/g/day

Q: What about the “K1 (index of the tumor cells death rate)” value [13] of the same compound?
A: 0.08819 day⁻¹

Q: And the “K2 (index of the potency of the compound)” value [13]?
A: 0.001276 mL/g/day

Q: What about the “LAMBDA0 (production rate of tumor cells, exponential phase)” value (from here on “LAMBDA0”) [14] of the same compound?
A: 0.2601

Q: What about the “LAMBDA1 (tumor cells mass produced in the time unit, linear phase)” value (“LAMBDA1” for short) [14] of the same compound?
A: 0.1563

Q: What about the “LAMBDA0” value [15] of the same compound?
A: 0.2087

Q: And the “LAMBDA1” value [15]?
A: 0.1678

Q: And the “LAMBDA0” value [16]?
A: 0.2396

Q: What about the “LAMBDA1” value [16] of the same compound?
A: 0.16

Q: And the “LAMBDA0” value [17]?
A: 0.2726

Q: And the “LAMBDA1” value [17]?
A: 0.08095

Q: And the “LAMBDA0” value [18]?
A: 0.2377

Q: What about the “LAMBDA1” value [18] of the same compound?
A: 0.07223

Q: What about the “LAMBDA0” value [19] of the same compound?
A: 0.2458

Q: And the “LAMBDA1” value [19]?
A: 0.07275

Q: What about the “λ0 (production rate of tumor cells, exponential phase)” value [20] of the same compound?
A: 0.2565

Q: What about the “λ1 (tumor cells mass produced in the time unit, linear phase)” value [20] of the same compound?
A: 0.18

Q: What about the “λ0 (production rate of tumor cells, exponential phase)” value [21] of the same compound?
A: 0.2464

Q: What about the “λ1 (tumor cells mass produced in the time unit, linear phase)” value [21] of the same compound?
A: 0.1782

Q: And the “λ0 (production rate of tumor cells, exponential phase)” value [22]?
A: 0.2438

Q: And the “λ1 (tumor cells mass produced in the time unit, linear phase)” value [22]?
A: 0.1276

Q: What about the “λ0 (production rate of tumor cells, exponential phase)” value [23] of the same compound?
A: 0.234

Q: And the “λ1 (tumor cells mass produced in the time unit, linear phase)” value [23]?
A: 0.05985

Q: What about the “λ0 (production rate of tumor cells, exponential phase)” value [24] of the same compound?
A: 0.2723

Q: What about the “λ1 (tumor cells mass produced in the time unit, linear phase)” value [24] of the same compound?
A: 0.0685

Q: And the “λ0 (production rate of tumor cells, exponential phase)” value [25]?
A: 0.2431

Q: What about the “λ1 (tumor cells mass produced in the time unit, linear phase)” value [25] of the same compound?
A: 0.2049
